Experimental data taken from US11877574B2, “Herbicidal oil dispersion and method” (Arysta LifeScience Inc., priority 2018, dated 2024).

Columns and labels:
[1] = Active ingredient assay and recovery on storage (Table 2); assay type: physicochemical
[2] = Active ingredient assay on storage, SCB239-12 (Table 3); assay type: physicochemical

CCCCCCCC(=O)Oc1c(Br)cc(C#N)cc1Br [Bromoxynil, Bromoxynil Octanoate]
Assay (% w/w) ([1]; 1 month storage, 0° C.): 31.04 % w/w
Assay (% w/w) ([1]; 1 month storage, 40° C.): 31.46 % w/w
Assay (% w/w) ([1]; 1 month storage, T/C): 31.27 % w/w
Assay (% w/w) ([1]; 1 month storage, −10° C.): 31.44 % w/w
Assay (% w/w) ([1]; 2 month storage, 0° C.): 31.30 % w/w
Assay (% w/w) ([1]; 2 month storage, 40° C.): 30.78 % w/w
Assay (% w/w) ([1]; 2 month storage, T/C): 30.99 % w/w
Assay (% w/w) ([1]; 2 month storage, −10° C.): 31.34 % w/w
Assay (% w/w) ([1]; 2 wks, 54° C.): 31.02 % w/w
Assay (% w/w) ([1]; 3 month storage, 0° C.): 32.81 % w/w
Assay (% w/w) ([1]; 3 month storage, 25° C.): 32.57 % w/w
Assay (% w/w) ([1]; 3 month storage, 40° C.): 32.17 % w/w
Assay (% w/w) ([1]; 3 month storage, T/C): 32.54 % w/w
Assay (% w/w) ([1]; 3 month storage, −10° C.): 33.06 % w/w
Assay (% w/w) ([1]; 6 month storage, 25° C.): 31.38 % w/w
Assay (% w/w) ([1]; 9 month storage, 25° C.): 32.11 % w/w
Assay (% w/w) ([1]; 12 month storage, 25° C.): 31.19 % w/w
Assay (% w/w) ([1]; F/T Sample): 31.42 % w/w
Assay (% w/w) ([1]; initial): 31.32 % w/w
Assay (% w/w) ([2]; 1 month storage, 0° C.): 31.08 % w/w
Recovery of active ingredient (% of initial assay) ([2]; 1 month storage, 0° C.): 99.56 % w/w
Assay (% w/w) ([2]; 1 month storage, 40° C.): 30.65 % w/w
Recovery of active ingredient (% of initial assay) ([2]; 1 month storage, 40° C.): 98.17 % w/w
Assay (% w/w) ([2]; 1 month storage, T/C): 30.89 % w/w
Recovery of active ingredient (% of initial assay) ([2]; 1 month storage, T/C): 98.95 % w/w
Assay (% w/w) ([2]; 2 month storage, 0° C.): 30.30 % w/w
Recovery of active ingredient (% of initial assay) ([2]; 2 month storage, 0° C.): 97.06 % w/w
Assay (% w/w) ([2]; 2 month storage, 40° C.): 29.43 % w/w
Recovery of active ingredient (% of initial assay) ([2]; 2 month storage, 40° C.): 94.28 % w/w
Assay (% w/w) ([2]; 2 month storage, T/C): 29.88 % w/w
Recovery of active ingredient (% of initial assay) ([2]; 2 month storage, T/C): 95.73 % w/w
Assay (% w/w) ([2]; 2 wks, 54° C.): 30.55 % w/w
Recovery of active ingredient (% of initial assay) ([2]; 2 wks, 54° C.): 97.86 % w/w
Assay (% w/w) ([2]; 3 month storage, 0° C.): 30.06 % w/w
Recovery of active ingredient (% of initial assay) ([2]; 3 month storage, 0° C.): 96.31 % w/w
Assay (% w/w) ([2]; 3 month storage, 25° C.): 30.03 % w/w
Recovery of active ingredient (% of initial assay) ([2]; 3 month storage, 25° C.): 96.21 % w/w
Assay (% w/w) ([2]; 3 month storage, 40° C.): 29.37 % w/w
Recovery of active ingredient (% of initial assay) ([2]; 3 month storage, 40° C.): 94.07 % w/w
Assay (% w/w) ([2]; 3 month storage, −10° C.): 30.49 % w/w
Recovery of active ingredient (% of initial assay) ([2]; 3 month storage, −10° C.): 97.68 % w/w
Assay (% w/w) ([2]; F/T sample): 31.13 % w/w
Recovery of active ingredient (% of initial assay) ([2]; F/T sample): 99.73 % w/w
Assay (% w/w) ([2]; Initial): 31.22 % w/w

COc1nn(C(=O)[N-]S(=O)(=O)c2ccccc2OC(F)(F)F)c(=O)n1C.[Na+] [Flucarbazone, Flucarbazone Sodium]
Assay (% w/w) ([1]; 1 month storage, 0° C.): 1.89 % w/w
Assay (% w/w) ([1]; 1 month storage, 40° C.): 1.90 % w/w
Assay (% w/w) ([1]; 1 month storage, T/C): 1.90 % w/w
Assay (% w/w) ([1]; 1 month storage, −10° C.): 1.90 % w/w
Assay (% w/w) ([1]; 2 month storage, 0° C.): 1.93 % w/w
Assay (% w/w) ([1]; 2 month storage, 40° C.): 1.91 % w/w
Assay (% w/w) ([1]; 2 month storage, T/C): 1.93 % w/w
Assay (% w/w) ([1]; 2 month storage, −10° C.): 1.93 % w/w
Assay (% w/w) ([1]; 2 wks, 54° C.): 1.90 % w/w
Assay (% w/w) ([1]; 3 month storage, 0° C.): 1.98 % w/w
Assay (% w/w) ([1]; 3 month storage, 25° C.): 1.99 % w/w
Assay (% w/w) ([1]; 3 month storage, 40° C.): 1.94 % w/w
Assay (% w/w) ([1]; 3 month storage, T/C): 1.98 % w/w
Assay (% w/w) ([1]; 3 month storage, −10° C.): 1.99 % w/w
Assay (% w/w) ([1]; 6 month storage, 25° C.): 1.92 % w/w
Assay (% w/w) ([1]; 9 month storage, 25° C.): 1.92 % w/w
Assay (% w/w) ([1]; 12 month storage, 25° C.): 1.92 % w/w
Assay (% w/w) ([1]; F/T Sample): 1.92 % w/w
Assay (% w/w) ([1]; initial): 1.91 % w/w
Assay (% w/w) ([2]; 1 month storage, 0° C.): 1.81 % w/w
Recovery of active ingredient (% of initial assay) ([2]; 1 month storage, 0° C.): 99.67 % w/w
Assay (% w/w) ([2]; 1 month storage, 40° C.): 1.85 % w/w
Recovery of active ingredient (% of initial assay) ([2]; 1 month storage, 40° C.): 101.98 % w/w
Assay (% w/w) ([2]; 1 month storage, T/C): 1.83 % w/w
Recovery of active ingredient (% of initial assay) ([2]; 1 month storage, T/C): 101.13 % w/w
Assay (% w/w) ([2]; 2 month storage, 0° C.): ′1.81 % w/w
Recovery of active ingredient (% of initial assay) ([2]; 2 month storage, 0° C.): 99.76 % w/w
Assay (% w/w) ([2]; 2 month storage, 40° C.): 1.80 % w/w
Recovery of active ingredient (% of initial assay) ([2]; 2 month storage, 40° C.): 99.54 % w/w
Assay (% w/w) ([2]; 2 month storage, T/C): 1.82 % w/w
Recovery of active ingredient (% of initial assay) ([2]; 2 month storage, T/C): 100.35 % w/w
Assay (% w/w) ([2]; 2 wks, 54° C.): 1.68 % w/w
Recovery of active ingredient (% of initial assay) ([2]; 2 wks, 54° C.): 92.84 % w/w
Assay (% w/w) ([2]; 3 month storage, 0° C.): 1.80 % w/w
Recovery of active ingredient (% of initial assay) ([2]; 3 month storage, 0° C.): 99.13 % w/w
Assay (% w/w) ([2]; 3 month storage, 25° C.): 1.79 % w/w
Recovery of active ingredient (% of initial assay) ([2]; 3 month storage, 25° C.): 98.51 % w/w
Assay (% w/w) ([2]; 3 month storage, 40° C.): 1.72 % w/w
Recovery of active ingredient (% of initial assay) ([2]; 3 month storage, 40° C.): 95.13 % w/w
Assay (% w/w) ([2]; 3 month storage, −10° C.): 1.78 % w/w
Recovery of active ingredient (% of initial assay) ([2]; 3 month storage, −10° C.): 98.44 % w/w
Assay (% w/w) ([2]; F/T sample): 1.80 % w/w
Recovery of active ingredient (% of initial assay) ([2]; F/T sample): 99.26 % w/w
Assay (% w/w) ([2]; Initial): 1.81 % w/w
